Experimental data: patent US20100061982A1, “3-SUBSTITUTED-1H-INDOLE, 3-SUBSTITUTED-1H-PYRROLO[2,3-B]PYRIDINE AND 3-SUBSTITUTED-1H-PYRROLO[3,2-B]PYRIDINE COMPOUNDS, THEIR USE AS MTOR KINASE AND PI3 KINASE INHIBITORS, AND THEIR SYNTHESES” (priority 2008, published 2010)
Values after ≈ are worked out from the molar mass of the structure shown.

Experiments:
[1] = PAMPA permeability pH 7.4
[2] = In vivo blood/plasma and tumor levels of prodrug and metabolites after 50 mg, kg po; settings: for plasma prodrug concentration / tumor prodrug concentration: 50 mg
[3] = Microsome Stability (15 min), nude mouse; format: in vitro ADME; settings: microsomes, Phase I (NADPH), read-out: Microsome Stability (15 min) T ½ Phase I nude mouse
[4] = Buffer Stability (37° C.)
[5] = Microsome Stability (15 min), human; format: in vitro ADME; settings: microsomes, Phase I (NADPH), read-out: Microsome Stability (15 min) T ½ Phase I human
PI3K alpha = PI3K alpha (Homo sapiens, UniProt P42336); assay: PI3K-alpha Fluorescence Polarization Assay; format: biochemical
[6] = Plasma Stability (37° C.), nude mouse
[7] = CACO2 permeability a-b/b-a; format: in vitro ADME; settings: human, Caco-2; for Papp A→B: a − b (first value of cell), read-out: CACO2 Pe a − b; for Papp B→A: b − a (second value of cell), read-out: CACO2 Pe b − a
[8] = Microsome Stability (15 min), rat; format: in vitro ADME; settings: microsomes, Phase I (NADPH), read-out: Microsome Stability (15 min) T ½ Phase I rat
Solubility pH 7.4 = settings: pH 7.4, aqueous buffer
[9] = Plasma Stability (37° C.), rat

Sequence of PI3K alpha (P42336 whole entry, species assumed): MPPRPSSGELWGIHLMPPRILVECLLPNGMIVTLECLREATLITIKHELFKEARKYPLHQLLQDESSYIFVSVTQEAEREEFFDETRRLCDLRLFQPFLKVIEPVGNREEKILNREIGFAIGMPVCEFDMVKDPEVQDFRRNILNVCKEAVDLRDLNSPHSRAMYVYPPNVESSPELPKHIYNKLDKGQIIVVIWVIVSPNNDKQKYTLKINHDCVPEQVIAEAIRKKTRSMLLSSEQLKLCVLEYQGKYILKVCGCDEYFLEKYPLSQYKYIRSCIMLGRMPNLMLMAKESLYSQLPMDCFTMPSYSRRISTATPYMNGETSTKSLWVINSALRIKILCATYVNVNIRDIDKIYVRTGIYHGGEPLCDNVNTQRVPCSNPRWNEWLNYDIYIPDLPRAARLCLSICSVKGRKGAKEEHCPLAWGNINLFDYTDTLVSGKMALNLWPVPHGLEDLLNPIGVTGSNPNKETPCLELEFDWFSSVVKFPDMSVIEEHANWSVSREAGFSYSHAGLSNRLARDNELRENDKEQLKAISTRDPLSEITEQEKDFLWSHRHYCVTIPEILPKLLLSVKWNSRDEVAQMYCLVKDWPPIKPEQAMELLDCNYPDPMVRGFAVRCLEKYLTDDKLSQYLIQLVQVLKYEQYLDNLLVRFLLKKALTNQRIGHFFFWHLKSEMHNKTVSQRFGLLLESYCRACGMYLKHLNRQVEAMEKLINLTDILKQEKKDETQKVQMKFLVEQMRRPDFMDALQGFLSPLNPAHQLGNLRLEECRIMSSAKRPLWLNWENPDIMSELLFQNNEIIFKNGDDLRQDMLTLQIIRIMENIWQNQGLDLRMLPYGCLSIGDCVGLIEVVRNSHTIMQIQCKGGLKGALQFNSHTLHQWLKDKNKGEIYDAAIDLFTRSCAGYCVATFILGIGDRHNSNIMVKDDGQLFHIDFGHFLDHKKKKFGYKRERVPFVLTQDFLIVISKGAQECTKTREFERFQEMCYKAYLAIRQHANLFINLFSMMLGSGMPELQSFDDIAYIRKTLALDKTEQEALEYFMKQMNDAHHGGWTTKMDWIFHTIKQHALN
Sequence of PI3K alpha (P27986 whole entry partner, species assumed): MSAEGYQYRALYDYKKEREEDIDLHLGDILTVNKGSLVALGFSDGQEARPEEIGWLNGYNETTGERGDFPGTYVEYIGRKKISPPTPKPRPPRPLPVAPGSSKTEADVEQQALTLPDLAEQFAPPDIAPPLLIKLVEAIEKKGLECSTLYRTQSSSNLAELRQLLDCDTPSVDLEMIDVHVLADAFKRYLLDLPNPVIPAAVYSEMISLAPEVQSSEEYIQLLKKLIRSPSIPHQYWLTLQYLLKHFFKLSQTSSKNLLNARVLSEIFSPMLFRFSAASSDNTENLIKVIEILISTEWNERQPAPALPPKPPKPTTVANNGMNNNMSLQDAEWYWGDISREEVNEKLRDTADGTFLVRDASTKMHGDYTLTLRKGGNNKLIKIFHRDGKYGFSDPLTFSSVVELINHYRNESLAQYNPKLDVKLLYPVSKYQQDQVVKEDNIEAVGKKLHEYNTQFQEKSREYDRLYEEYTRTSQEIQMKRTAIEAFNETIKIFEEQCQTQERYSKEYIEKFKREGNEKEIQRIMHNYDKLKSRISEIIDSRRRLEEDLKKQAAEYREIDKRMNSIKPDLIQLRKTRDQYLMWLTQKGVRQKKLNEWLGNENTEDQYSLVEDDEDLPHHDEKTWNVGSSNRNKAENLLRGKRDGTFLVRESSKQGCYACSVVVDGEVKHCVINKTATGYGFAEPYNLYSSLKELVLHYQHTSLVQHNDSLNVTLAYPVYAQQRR

SMILES	PAMPA Pe [1]	plasma prodrug concentration ([2]; 0.5 h)	tumor prodrug concentration ([2]; 0.5 h)	plasma prodrug concentration ([2]; 2 h)	tumor prodrug concentration ([2]; 2 h)	tumor prodrug concentration ([2]; 6 h)	plasma prodrug concentration ([2]; 6 h (third value))	plasma prodrug concentration ([2]; 10 h)	tumor prodrug concentration ([2]; 10 h)	plasma prodrug concentration ([2]; 24 h)	tumor prodrug concentration ([2]; 24 h)	blood 4-OH, 6-OR mono prodrug concentration (metabolite) ([2]; prodrug 50 mg, 24 h)	blood 6-OH, 4-OR mono prodrug concentration (metabolite) ([2]; prodrug 50 mg, 24 h)	tumor 6-OH, 4-OR mono prodrug concentration (metabolite) ([2]; prodrug 50 mg, 24 h)	half-life [3]	Buffer Stability (37° C.) % Remaining (at 16-23 hours) SGF [4]	Buffer Stability (37° C.) % Remaining (at 16-23 hours) SIF [4]	Buffer Stability (37° C.) % Remaining (at 16-23 hours) pH 1 [4]	Buffer Stability (37° C.) % Remaining (at 16-23 hours) pH 4.5 [4]	Buffer Stability (37° C.) % Remaining (at 16-23 hours) pH 6.6 [4]	also measured
COc1ccc2c(c1)c(/C=C1\Oc3cc(OC(=O)N(C)C)cc(OC(=O)N(C)C)c3C1=O)cn2CCCN(C)C [Example 8, (2Z)-2-({1-[3-(dimethylamino)propyl]-5-methoxy-1H-indol-3-yl}methylene)-3-oxo-2,3-dihydro-1-benzofuran-4,6-diyl bis(dimethylcarbamate)]	4.53 10e−6 cm/s	3122, ng, ml	2170, ng, ml	3876, ng, ml	4820, ng, ml	1482, ng, ml	2170, ng, ml	497 ng, ml	556 ng, ml	3 ng, ml	bql	bql	bql	bql	23 min	100%	100%	100%	100%	100%	tumor 4-OH, 6-OR mono prodrug concentration (metabolite) ([2]; prodrug 50 mg, 24 h): bql; blood precursor phenolic cpd concentration (metabolite) ([2]; prodrug 50 mg, all time points (0.5, 2, 6, 10, 24 h)): bql at all; Buffer Stability (37° C.) % Remaining (at 16-23 hours) pH 7.4 [4]: 100%; Buffer Stability (37° C.) % Remaining (at 16-23 hours) pH 9 [4]: 91%; half-life [5]: 15 min; IC50 (PI3K alpha): > 10 µM; Plasma Stability (37° C.) % Remaining (3-3.5 hours) nude mouse [6]: 7%; Papp A→B [7]: 4.82 ×10⁻⁶ cm/s; Papp B→A [7]: 7.22 ×10⁻⁶ cm/s; half-life [8]: > 30 min; solubility (Solubility pH 7.4): 28 µg/mL (≈ 50.9 µM); Plasma Stability (37° C.) % Remaining (3-3.5 hours) rat [9]: 50%
COc1ccc2c(c1)c(/C=C1\Oc3cc(OC(=O)N(C)C)cc(OC(=O)N(C)C)c3C1=O)c(C)n2CCN1CCN(C)CC1 [Example 12, (2Z)-2-({5-methoxy-2-methyl-1-[2-(4-methylpiperazin-1-yl)ethyl]-1H-indol-3-yl}methylene)-3-oxo-2,3-dihydro-1-benzofuran-4,6-diyl bis(dimethylcarbamate)]	0.78 10e−6 cm/s	2444, ng, ml	344, ng, ml	3871, ng, ml	1278, ng, ml	629 ng, ml	2027, ng, ml	443 ng, ml	69 ng, ml	1 ng, ml	bql	bql	bql	bql	23 min	100%	100%	100%	100%	100%	tumor precursor phenolic cmpd concentration (metabolite) ([2]; prodrug 50 mg, 6 h (third value)): bql; Buffer Stability (37° C.) % Remaining (at 16-23 hours) pH 7.4 [4]: 100%; Buffer Stability (37° C.) % Remaining (at 16-23 hours) pH 9 [4]: 90%; half-life [5]: 9 min; IC50 (PI3K alpha): > 10 µM; Plasma Stability (37° C.) % Remaining (3-3.5 hours) nude mouse [6]: 32%; Papp A→B [7]: 1.98 ×10⁻⁶ cm/s; Papp B→A [7]: 3.36 ×10⁻⁶ cm/s; half-life [8]: 23 min; solubility (Solubility pH 7.4): 40 µg/mL (≈ 66 µM); Plasma Stability (37° C.) % Remaining (3-3.5 hours) rat [9]: 71%
